Laboratory results from patent publication US20260185025A1, “MICROPHYSIOLOGICAL PLATFORM WITH EMBEDDED ELECTRODES FOR 3D TISSUE CULTURE” (VALO HEALTH, INC., priority 2020, published 2026).

Test system: human engineered cardiac tissues (human iPSC derived cardiomyocytes co-cultured with human cardiac fibroblasts)
Test: Drug testing of engineered cardiac tissues in Biowire II 96-well plate under electrical pacing (contractile dynamics by wire displacement)
Type: cell-based
Conditions: day 19 tissues, n=2 (FIG. 7H)
Description: To generate cardiac tissues, human iPSC derived cardiomyocytes co-cultured with human cardiac fibroblasts were seeded with hydrogel in the 96-well plate device. Tissue compaction in the first seven days was observed (FIG. 7A, FIG. 7B), with dramatic change in the first two days followed by stabilization after day 3. Electrical field stimulation of cardiac tissues was initiated at day 7 and continued for the additional 12 days. […] Thapsigargin (50×10^-6 m), an inhibitor of sarcoplasmic reticulum function in cardiomyocytes, was added in the presence of electrical pacing (1.5 Hz), resulting in a prolonged tissue contraction and relaxation time (FIG. 7H). […] Predominantly ventricular cardiomyocytes (CMs) were derived from the hiPSC line BJ1D, using monolayer differentiation protocols as previously described. At day 21 of differentiation, cardiomyocytes were disassociated into single cells with previously established methods. Briefly, 1 mg mL^-1 of collagenase type II (Worthington, LS004205) in Hank's Balanced Salt Solution was added to the monolayer cardiomyocyte cultures and incubated overnight at room temperature. The disassociated cells were mixed with cardiac fibroblasts (Lonza, NHCF-V) in a 10:1 cell number ratio. The mixed cells were pelleted and remixed in collagen hydrogel at 5.5×10^7 cells mL^-1. The cell-gel mixture was seeded at […] per microwell. A droplet of media was placed on the wall of the well to keep the moisture until gelation was complete. The plate was incubated at 37° C. and 5% CO2 for 10 min followed by media addition. […] Average tissue width and width of the tissue (Tw), attachment site to the polymer sensor were measured using bright field images at the relaxed state. Passive displacement of polymer sensors was assessed in blue channel. […] The final readouts for the total and passive forces were interpolated according to the Tw and custom tip sizes. […] With built-in force sensor and electrodes, tissues were able to be assessed in situ in terms of their contractile dynamics and drug responses. […] The videos were analyzed using the custom MATLAB software. […]

[1] = 50×10^−6 m, electrical pacing 1.5 Hz, video 15 min after addition

C/C=C(/C)C(=O)O[C@H]1C(C)=C2[C@H]([C@@H]1OC(=O)CCCCCCC)[C@@](C)(OC(C)=O)C[C@H](OC(=O)CCC)[C@@]1(O)[C@H]2OC(=O)[C@@]1(C)O [Thapsigargin]
tissue contraction time [1]: prolonged
tissue relaxation time [1]: prolonged
frequency of tissue beating (thapsigargin 50 µM, constant stimulation frequency 1.5 Hz): decreased by half
